Source: ChEMBL document CHEMBL2150938, “Pyrrolo[2,3-b]quinoxalines as inhibitors of firefly luciferase: their Cu-mediated synthesis and evaluation as false positives in a reporter gene assay” (Bioorg Med Chem Lett, 2012)

Experiments:
Lampyridae = experiment: inhibition of firefly luciferase at 30 uM after 15 mins by luminescence assay
[1] = biological target: 3',5'-cyclic-AMP phosphodiesterase 4B (Homo sapiens) (UniProt Q07343); experiment: Inhibition of PDE4B at 30 uM by luciferase reporter gene assay
Chain of 3',5'-cyclic-AMP phosphodiesterase 4B (Homo sapiens) (Q07343 whole entry): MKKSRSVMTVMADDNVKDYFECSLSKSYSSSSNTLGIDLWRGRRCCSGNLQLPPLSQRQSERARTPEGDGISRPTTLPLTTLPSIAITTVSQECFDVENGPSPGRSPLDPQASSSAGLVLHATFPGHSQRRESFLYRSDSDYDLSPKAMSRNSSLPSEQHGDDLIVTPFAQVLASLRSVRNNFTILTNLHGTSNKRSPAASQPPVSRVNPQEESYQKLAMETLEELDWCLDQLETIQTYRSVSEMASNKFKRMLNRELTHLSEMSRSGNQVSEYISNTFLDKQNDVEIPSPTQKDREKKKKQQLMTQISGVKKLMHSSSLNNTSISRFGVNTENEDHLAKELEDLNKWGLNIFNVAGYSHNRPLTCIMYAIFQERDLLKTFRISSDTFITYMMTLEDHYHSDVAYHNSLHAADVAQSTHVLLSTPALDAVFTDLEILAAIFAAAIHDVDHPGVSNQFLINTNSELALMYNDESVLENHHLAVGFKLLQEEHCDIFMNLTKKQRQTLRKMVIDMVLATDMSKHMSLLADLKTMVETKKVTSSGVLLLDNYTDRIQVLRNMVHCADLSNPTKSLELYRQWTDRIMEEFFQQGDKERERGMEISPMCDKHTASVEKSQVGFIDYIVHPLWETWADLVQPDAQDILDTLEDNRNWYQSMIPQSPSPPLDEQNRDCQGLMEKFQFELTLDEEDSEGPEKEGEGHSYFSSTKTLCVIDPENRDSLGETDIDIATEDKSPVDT

inhibition (Lampyridae) | inhibition [1] | Structure (SMILES)
98.4% | 98.3% | c1ccc(-c2cc3[nH]c4ccccc4nc-3n2)cc1
92.4% | 94.7% | CS(=O)(=O)n1c(-c2ccccc2)cc2nc3ccccc3nc21
99.2% | 100% | CC(C)(C)c1cc2nc3ccccc3nc2[nH]1
